From paper PMC7714403 (JCI Insight, 2020)
pIC50, pKd: −log10 of the molar value.

What was measured:
[1] = biological target: T1, RSK3 domain1 (Homo sapiens, UniProt Q15349); assay: KiNativ, OCI cells live cell; type: cell-based; conditions: 2 h, labeling site Lys2, peptide […]
T1 construct: RSK3 domain1

[2] = biological target: FMS (Homo sapiens, UniProt P07333); assay: KiNativ, OCI cells live cell; type: cell-based; conditions: 2 h, labeling site ATP Loop, peptide […]
[3] = biological target: T2, RSK1 domain1 (Homo sapiens, UniProt Q15418); assay: KiNativ, OCI cells live cell; type: cell-based; conditions: 2 h
T2 construct: RSK1 domain1

[4] = biological target: CDK4 (Homo sapiens, UniProt P11802); assay: KdELECT binding assay; set-up: purchased Eurofins DiscoverX
[5] = biological target: T3, CHEK1 (Homo sapiens, UniProt O14757); assay: KdELECT binding assay
T3 construct: purchased Eurofins DiscoverX

[6] = biological target: PIK3CG (Homo sapiens, UniProt P48736); assay: KiNativ, OCI cells live cell; type: cell-based; conditions: 2 h, labeling site ATP, peptide […]
[7] = test system: OCI-AML3-Luc+ cells; assay: OCI-AML3-Luc+ xenograft model; type: in vivo, NSG mice
Protocol: Engraftment and growth of leukemic cells were monitored by noninvasive bioluminescence imaging in cell line xenograft models, as previously done ([47]). Details on the cell engraftment and dosing in mouse models are provided in the Supplemental Methods.
Luc+ or MOLM13-Res -Luc+ cells, 0.5 million OCI-AML3 -Luc+ cells, and 10,000 Ba/F3-FLT3-ITD/F691L-GFP+ cells. Weekly tumor engraftment of cell line xenograft models were assessed after injection of D-luciferin (150mg/kg i.p.; Gold Biotechnology, Inc, St. Louis, MO) on Xenogen IVIS-200 imaging system (Perkin Elmer, Waltham, MA) or GFP monitoring by peripheral blood via BD LSR II flow cytometer (BD Biosciences, San Jose, CA). Signal intensity was analyzed using Living Image Software (PerkinElmer) or FlowJo v10.0.08 software (FlowJo, LLC, Ashland, OR). Mice were randomized to treatment groups based on signal intensity and leukemia burden. Drug treatments were started on days 3, 7, or 13 after cell injection in OCI-AML3, MOLM13, and MOLM13-Res xenografts, respectively. […]
All mice were observed daily and humanely euthanized when showing signs of progressive disease including, hind limb paralysis, weight loss more than 20%, and lethargy. All animal studies were approved by the OSU Institutional Animal Care and Use Committee. […]
Cells were then fixed on ice with ice-cold 70% ethanol for 30 minutes . Cells were either stored at -20°C for up to 1 month or processed immediately. Cells were spun down at 450 x g for 10 minutes and stained

[8] = test system: OCI-AML3 cells; assay: Viability assay; type: cell-based; conditions: Homo sapiens, OCI-AML-3, read-out: IC50 viability
Protocol: Drug treatments were carried out for 72 hours. Details are provided in the Supplemental Methods.

[9] = biological target: ATR (Homo sapiens, UniProt Q13535); assay: KiNativ, OCI cells live cell; type: cell-based; conditions: 2 h, labeling site ATP, peptide […]
[10] = biological target: NEK1 (Homo sapiens, UniProt Q96PY6); assay: KiNativ, OCI cells live cell; type: cell-based; conditions: 2 h, labeling site Lys2, peptide […]
[11] = biological target: T4, MERTK (Homo sapiens, UniProt Q12866); assay: KdELECT binding assay
T4 construct: purchased Eurofins DiscoverX

[12] = biological target: CaMK2g (Homo sapiens, UniProt Q13555); assay: KiNativ, OCI cells live cell; type: cell-based; conditions: 2 h, labeling site Lys1, peptide […]
[13] = biological target: CaMK4 (Homo sapiens, UniProt Q16566); assay: KiNativ, OCI cells live cell; type: cell-based; conditions: 2 h, labeling site Lys2, peptide […]
[14] = biological target: MARK2 (Homo sapiens, UniProt Q7KZI7); assay: KiNativ, OCI cells live cell; type: cell-based; conditions: 2 h, labeling site Lys1, peptide […]
[15] = biological target: CDK2 (Homo sapiens, UniProt P24941); assay: KiNativ, OCI cells live cell; type: cell-based
[16] = test system: PCTAIRE1, PCTAIRE3; assay: KiNativ, OCI cells live cell; type: cell-based, human; conditions: labeling site Lys2, peptide DLKPQNLLINER
[17] = test system: CaMK2a, CaMK2b, CaMK2d, CaMK2g; assay: KiNativ, OCI cells live cell; type: cell-based, human; conditions: labeling site Lys2, peptide DLKPENLLLASK
[18] = biological target: T5, PLK4 (Homo sapiens, UniProt O00444); assay: KdELECT binding assay
T5 construct: purchased Eurofins DiscoverX

[19] = biological target: CDK10 (Homo sapiens, UniProt Q15131); assay: KiNativ, OCI cells live cell; type: cell-based; conditions: 2 h, labeling site Lys2, peptide […]
[20] = biological target: CaMK2d (Homo sapiens, UniProt Q13557); assay: KiNativ, OCI cells live cell; type: cell-based; conditions: 2 h, labeling site Lys1, peptide […]
[21] = test system: MV4-11, MOLM13, and MOLM13-RES cells; assay: Apoptosis assay (annexin V); type: cell-based, human; conditions: 20 nM, 24 and 48 hours
Protocol: (§1) Apoptosis and CD11b expression assays
(§2) At indicated time points, cells were collected and washed with PBS. CD11b expression was measured using anti-CD11b -APC antibody (BioLegend, San Diego, CA). Each sample was suspended in 100uL of FACS buffer (PBS + 4% FBS) with 1uL of antibody, incubated on ice for 15 minutes in the dark and washed once in PBS. DAPI (final concentration 1ug/mL [ThermoFisher Scientific]) was added to each sample as a viability dye. For apoptosis assay, cells were incubated with annexin V-APC (BioLegend) according to manufacturer’s instructions. CD11b expression and apoptosis were measured by BD LSR II flow cytometer. Two-color cytometry was performed, and data were […]
(§3) points, cells were collected and washed with 0.1% EDTA PBS (Ricca Chemical Company, Arlington, TX) followed by only PBS. Cells were then fixed on ice with ice-cold 70% ethanol for 30 minutes . Cells were either stored at -20°C for up to 1 month or processed immediately. Cells were spun down at 450 x g for 10 minutes and stained

[22] = test system: OCI-AML3 cells; assay: Apoptosis assay (annexin V); type: cell-based, human; conditions: 20–50 nM, 72 hours
Protocol: as §1, §2, §3

[23] = test system: IKKe, TBK1; assay: KiNativ, OCI cells live cell; type: cell-based, human; conditions: labeling site Lys2, peptide DIKPGNIMR
[24] = 50 mg/kg once daily 5 days/week

T2 sequence (Q15418 whole entry, the tested form may be a part): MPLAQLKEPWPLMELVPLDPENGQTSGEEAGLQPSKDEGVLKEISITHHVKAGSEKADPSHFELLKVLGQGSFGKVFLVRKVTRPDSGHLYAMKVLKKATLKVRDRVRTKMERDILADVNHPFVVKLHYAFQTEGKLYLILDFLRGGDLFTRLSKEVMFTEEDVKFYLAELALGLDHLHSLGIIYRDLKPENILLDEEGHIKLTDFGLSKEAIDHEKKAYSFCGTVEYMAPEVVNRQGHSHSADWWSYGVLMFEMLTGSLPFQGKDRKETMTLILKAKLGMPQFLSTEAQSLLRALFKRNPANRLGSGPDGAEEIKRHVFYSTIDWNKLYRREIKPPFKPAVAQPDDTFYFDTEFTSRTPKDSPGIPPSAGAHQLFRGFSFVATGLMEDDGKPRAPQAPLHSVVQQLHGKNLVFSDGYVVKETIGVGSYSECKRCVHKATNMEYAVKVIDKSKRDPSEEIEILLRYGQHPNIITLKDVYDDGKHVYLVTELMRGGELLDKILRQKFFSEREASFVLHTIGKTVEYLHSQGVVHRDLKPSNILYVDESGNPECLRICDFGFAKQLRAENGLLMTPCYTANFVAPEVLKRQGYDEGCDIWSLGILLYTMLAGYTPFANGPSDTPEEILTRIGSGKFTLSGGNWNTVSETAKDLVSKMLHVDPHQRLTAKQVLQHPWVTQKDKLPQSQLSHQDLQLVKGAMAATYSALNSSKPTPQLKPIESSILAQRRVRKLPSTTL
Sequence of PIK3CG (P48736 whole entry): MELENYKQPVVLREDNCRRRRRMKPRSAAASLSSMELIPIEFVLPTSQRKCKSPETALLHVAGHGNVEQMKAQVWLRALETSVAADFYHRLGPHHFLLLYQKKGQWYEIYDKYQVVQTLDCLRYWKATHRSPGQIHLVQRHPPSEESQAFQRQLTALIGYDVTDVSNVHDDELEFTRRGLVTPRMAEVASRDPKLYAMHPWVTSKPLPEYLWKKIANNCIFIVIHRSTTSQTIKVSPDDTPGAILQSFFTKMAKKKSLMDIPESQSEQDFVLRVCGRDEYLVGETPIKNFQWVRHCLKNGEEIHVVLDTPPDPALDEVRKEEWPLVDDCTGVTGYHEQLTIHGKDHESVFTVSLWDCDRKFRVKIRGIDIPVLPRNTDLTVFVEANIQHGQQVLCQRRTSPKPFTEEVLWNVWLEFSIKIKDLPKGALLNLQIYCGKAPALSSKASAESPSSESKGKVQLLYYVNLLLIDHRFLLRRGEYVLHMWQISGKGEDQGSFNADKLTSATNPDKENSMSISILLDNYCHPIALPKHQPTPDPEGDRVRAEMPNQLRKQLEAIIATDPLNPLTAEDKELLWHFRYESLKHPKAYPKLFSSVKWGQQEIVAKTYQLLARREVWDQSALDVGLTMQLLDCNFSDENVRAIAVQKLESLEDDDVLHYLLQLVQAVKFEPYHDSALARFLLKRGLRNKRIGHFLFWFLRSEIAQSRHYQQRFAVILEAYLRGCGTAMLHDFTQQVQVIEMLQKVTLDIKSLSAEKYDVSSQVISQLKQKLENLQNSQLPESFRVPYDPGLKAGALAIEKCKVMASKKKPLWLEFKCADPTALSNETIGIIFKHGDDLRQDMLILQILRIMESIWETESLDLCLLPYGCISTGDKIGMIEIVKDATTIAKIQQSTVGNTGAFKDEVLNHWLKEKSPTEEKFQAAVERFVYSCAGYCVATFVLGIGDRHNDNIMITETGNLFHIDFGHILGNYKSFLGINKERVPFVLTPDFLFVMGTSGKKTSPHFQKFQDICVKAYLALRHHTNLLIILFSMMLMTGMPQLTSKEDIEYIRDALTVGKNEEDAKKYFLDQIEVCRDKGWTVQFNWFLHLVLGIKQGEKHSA
Sequence of CaMK2d (Q13557 whole entry): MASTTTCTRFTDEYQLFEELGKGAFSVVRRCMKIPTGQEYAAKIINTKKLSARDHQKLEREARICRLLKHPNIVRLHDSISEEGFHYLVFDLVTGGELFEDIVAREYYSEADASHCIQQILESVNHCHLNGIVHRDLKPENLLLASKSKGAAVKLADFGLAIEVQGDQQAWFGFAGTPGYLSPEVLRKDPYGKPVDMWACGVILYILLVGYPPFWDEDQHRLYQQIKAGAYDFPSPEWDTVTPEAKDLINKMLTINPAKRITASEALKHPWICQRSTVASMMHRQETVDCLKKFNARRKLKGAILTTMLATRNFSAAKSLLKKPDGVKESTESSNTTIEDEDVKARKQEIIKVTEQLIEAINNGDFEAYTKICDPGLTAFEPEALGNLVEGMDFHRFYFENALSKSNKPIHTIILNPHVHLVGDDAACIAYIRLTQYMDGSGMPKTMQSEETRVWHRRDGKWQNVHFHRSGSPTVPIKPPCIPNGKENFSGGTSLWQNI
Sequence of CDK10 (Q15131 whole entry): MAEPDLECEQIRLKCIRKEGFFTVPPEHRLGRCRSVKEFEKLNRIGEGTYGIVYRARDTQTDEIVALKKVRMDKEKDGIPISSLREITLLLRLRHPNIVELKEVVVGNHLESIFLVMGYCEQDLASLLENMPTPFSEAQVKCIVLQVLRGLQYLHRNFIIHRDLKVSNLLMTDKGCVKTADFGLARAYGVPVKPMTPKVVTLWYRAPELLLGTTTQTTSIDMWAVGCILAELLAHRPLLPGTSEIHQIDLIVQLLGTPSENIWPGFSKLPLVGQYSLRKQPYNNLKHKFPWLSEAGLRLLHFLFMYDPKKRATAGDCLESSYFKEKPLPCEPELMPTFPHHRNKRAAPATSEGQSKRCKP
Sequence of CaMK4 (Q16566 whole entry): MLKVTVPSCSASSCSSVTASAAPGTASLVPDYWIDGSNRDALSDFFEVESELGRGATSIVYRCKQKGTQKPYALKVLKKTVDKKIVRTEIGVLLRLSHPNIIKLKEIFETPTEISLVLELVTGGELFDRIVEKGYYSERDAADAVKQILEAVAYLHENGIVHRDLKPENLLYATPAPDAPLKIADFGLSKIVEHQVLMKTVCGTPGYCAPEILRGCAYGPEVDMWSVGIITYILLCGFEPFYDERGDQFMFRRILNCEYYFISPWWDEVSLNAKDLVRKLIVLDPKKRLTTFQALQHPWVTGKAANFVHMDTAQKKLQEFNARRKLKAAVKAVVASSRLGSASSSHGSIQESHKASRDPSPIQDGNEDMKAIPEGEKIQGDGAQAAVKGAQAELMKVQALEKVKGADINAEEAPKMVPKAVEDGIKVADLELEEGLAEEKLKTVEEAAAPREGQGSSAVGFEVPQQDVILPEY
Sequence of NEK1 (Q96PY6 whole entry): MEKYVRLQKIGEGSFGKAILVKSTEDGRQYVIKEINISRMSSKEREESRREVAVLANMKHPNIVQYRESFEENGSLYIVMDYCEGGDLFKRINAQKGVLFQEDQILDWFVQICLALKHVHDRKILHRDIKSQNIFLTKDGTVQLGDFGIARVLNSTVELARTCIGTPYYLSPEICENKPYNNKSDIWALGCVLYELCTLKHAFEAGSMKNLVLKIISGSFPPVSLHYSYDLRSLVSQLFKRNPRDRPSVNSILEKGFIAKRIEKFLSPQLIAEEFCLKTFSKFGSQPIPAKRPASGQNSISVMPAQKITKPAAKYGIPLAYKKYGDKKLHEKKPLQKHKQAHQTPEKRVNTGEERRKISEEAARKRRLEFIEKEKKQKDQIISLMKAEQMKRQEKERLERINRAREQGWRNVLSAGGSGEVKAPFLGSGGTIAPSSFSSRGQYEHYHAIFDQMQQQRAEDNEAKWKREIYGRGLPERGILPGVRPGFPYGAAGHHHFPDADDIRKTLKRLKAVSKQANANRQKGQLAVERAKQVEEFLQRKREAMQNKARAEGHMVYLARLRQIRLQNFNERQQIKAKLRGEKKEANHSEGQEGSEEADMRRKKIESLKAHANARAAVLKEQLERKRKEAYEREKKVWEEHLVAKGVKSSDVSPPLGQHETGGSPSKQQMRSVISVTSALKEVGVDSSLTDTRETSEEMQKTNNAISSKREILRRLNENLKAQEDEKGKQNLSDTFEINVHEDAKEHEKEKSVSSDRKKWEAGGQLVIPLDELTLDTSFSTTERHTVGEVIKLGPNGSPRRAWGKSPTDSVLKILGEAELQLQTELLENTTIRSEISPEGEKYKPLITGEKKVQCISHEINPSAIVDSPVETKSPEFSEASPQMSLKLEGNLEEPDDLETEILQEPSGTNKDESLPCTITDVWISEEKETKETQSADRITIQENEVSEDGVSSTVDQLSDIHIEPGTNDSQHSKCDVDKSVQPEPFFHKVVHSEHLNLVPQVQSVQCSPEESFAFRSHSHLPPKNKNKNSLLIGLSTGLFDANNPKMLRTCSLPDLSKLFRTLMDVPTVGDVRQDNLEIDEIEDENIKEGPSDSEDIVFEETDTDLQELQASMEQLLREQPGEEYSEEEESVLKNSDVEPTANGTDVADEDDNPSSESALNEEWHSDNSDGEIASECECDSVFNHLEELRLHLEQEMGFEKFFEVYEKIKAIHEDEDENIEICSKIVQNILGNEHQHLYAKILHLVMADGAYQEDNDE
Sequence of CDK4 (P11802 whole entry): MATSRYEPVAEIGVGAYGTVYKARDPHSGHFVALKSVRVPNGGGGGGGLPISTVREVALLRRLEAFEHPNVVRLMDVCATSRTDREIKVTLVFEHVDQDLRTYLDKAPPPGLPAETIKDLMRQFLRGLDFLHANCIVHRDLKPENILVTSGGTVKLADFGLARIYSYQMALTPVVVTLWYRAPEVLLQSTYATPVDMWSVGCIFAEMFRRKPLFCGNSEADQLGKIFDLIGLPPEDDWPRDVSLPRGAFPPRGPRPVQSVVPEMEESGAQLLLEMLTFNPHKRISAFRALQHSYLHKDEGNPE

With `CN1CCN(Cc2ccc(Nc3ncc(Cl)c(Nc4ccccc4S(=O)(=O)N(C)C)n3)cc2)CC1` [TP-0903] the inhibition at 0.1 µM [1] was 53.5%, the inhibition at 0.1 µM [2] was -50% and the inhibition at 0.1 µM ([3]; labeling site Activation Loop, peptide LTDFGLSKEAIDHEKK) was 44.9%. For the same compound, the inhibition at 0.1 µM ([3]; labeling site Lys1, peptide KVTRPDSGHLYAMKVLK) was 42.9%, the pKd [4] was greater than 8.30 and the pKd [5] was 7.62. The inhibition at 0.1 µM [6] was 5.5%, the “Outgrowth of leukemia cells (bioluminescence)” value [7, 24] was “suppressed the outgrowth of leukemia cells” and the “Spleen weight at study endpoint (mean ± SD)” value [7, 24] was 181 ± 21 mg. The “Survival prolonged compared with vehicle” value ([7]; 50 mg/kg once daily 5 days/week up to 6 weeks) was 9 days, the pIC50 [8] was 7.43 and the inhibition at 0.1 µM [9] was 13%. It also gave an inhibition at 0.1 µM [10] of -4.4%, a pKd [11] greater than 8.30 and an inhibition at 0.1 µM [12] of 31.6%. The inhibition at 0.1 µM [13] was -2.6%, the inhibition at 0.1 µM [14] was 37.7% and the Inhibition ([15]; labeling site Lys1, peptide LTGEVVALKK) was 37.1%. The Inhibition ([15]; labeling site Lys2, peptide DLKPQNLLINTEGAIK) was 41.4%, the Inhibition [16] was 79.0% and the Inhibition [17] was 17.4%. It also gave a pKd [18] greater than 8.30, an inhibition at 0.1 µM [19] of 10% and an inhibition at 0.1 µM [20] of 34.5%. The Apoptosis [21] was “significant apoptosis”, the Apoptosis [22] was “significant apoptosis” and the Inhibition [23] was 64.1%.
